Reference: article PMC11738990, “A small-molecule TNIK inhibitor targets fibrosis in preclinical and clinical models” (Nature Biotechnology, 2024)
“And” between values parts separate entries of the source, which are not always exact repeats. Equal values may be shown once. Read-outs that look alike come from different tables or passages of the source.

What was measured:
C57BL/6 mice [1] = test: LPS-induced acute lung injury model; format: in vivo, mouse; details: individual animals, Fig 3E-F;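 also: bronchoalveolar lavage fluid sampled one day after intratracheal LPS challenge, cytokines measured by ELISA in supernatant, lymphocytes counted on Diff-Quick stained cytospin smears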
Description: One day before the first experimental day, animals were grouped. All mice were anesthetized with Zoletil–xylazine (50 mpk and 10 mpk, i.p.). At 0 h, mice received LPS at a dose of 50 μl as 50 μg per mouse (groups 2–5, n = 8 per group) or 50 μl saline (group 1, n = 8 per group) by intratracheal administration. […] In the dexamethasone group (group 5), animals were treated with dexamethasone both 2 h before and 4 h after the LPS challenge. Twenty-four hours after the LPS challenge, animals were euthanized, and BALF samples were collected.
Mice were first anesthetized with Zoletil–xylazine (50 mpk and 10 mpk, i.p.). Next, a 1.5–2-cm longitudinal incision was made on the ventral side of the neck to expose the trachea by blunt dissection, and curved forceps were placed underneath the trachea. A 10–12-cm piece of suture was then threaded underneath the trachea using forceps. The ends of the suture were then pulled cranially to ‘stretch’ the trachea toward the surgeon. A 20-G needle was then used to poke a hole in the trachea as close to the larynx as possible. A 22-G blunt stainless steel needle connected to PE tubing was placed in the hole and inserted approximately 5–8 mm into the trachea. The cannula was secured in the trachea by tying the suture around it with an overhand knot. A 1-ml syringe containing 0.4 ml saline was gently pushed forward and backward three times to recover BALF fluid. BALF was transferred into empty tubes and stored on ice. This process was repeated twice with 0.3 ml saline for a total volume of 1 ml.
Total cell numbers were counted with a standard hemocytometer by mixing 20 μl BALF with 20 μl trypan blue. Cytospins were prepared by cytocentrifugation using Cytospins at 106g for 5 min, and then smears of BALF cells were stained with Diff-Quick stain. Cell differentiation was performed by counting at least 400 cells using standard hemocytologic criteria to classify them as alveolar macrophages or monocytes, neutrophils, eosinophils or lymphocytes. The rest of the BALF fluid was centrifuged, and supernatants were collected and stored at −80 °C for cytokine, chemokine and total protein analysis.
From the collected BALF, concentrations of cytokines were measured from mice in groups 2–7 killed on day 28. Mouse BALF cytokines and chemokines were measured using the ELISA Analysis Kit (Sinobest Bio). Mouse BALF soluble collagen was measured using the Soluble Collagen kit (Biocolor). Mouse lung hydroxyproline content was measured using the Hydroxyproline Assay Kit (Njjcbio).

NHDF cells = test: Fibronectin and procollagen I in supernatant (ELISA); format: cell-based, human; details: TGF-β 10 ng/ml, 72 h
Description: The medium was then replaced with assay medium containing or not containing (control conditions) the test compounds, and TGF-β (10 ng ml^−1) was added or not (unstimulated control). […] Fibronectin and procollagen I contents were measured in the culture supernatants using specific ELISA kits (Takara, MK115 for fibronectin and MK101 for procollagen type I) according to the supplier’s instructions.

healthy subjects = details: in vivo
C57BL/6 mice [2] = test: Bleomycin-induced lung fibrosis model, combination with pirfenidone; format: in vivo, mouse; details: INS018_055 3mpk BID; 3 mg/kg
Description: Mice received bleomycin on day 1 at a dose of 0.66 mg per kg (equivalent to 1 U per kg), in a volume of 50 μl by intratracheal administration, or received saline (sham group). On day 7, dosing with the corresponding compounds was started. The vehicle group (group 1) was treated with 0.5% methylcellulose BID. […] On days 5 and 21, lung function measurement was performed. On day 28, all animals were killed, and blood and tissue samples were collected along with BALF.
Lung function was measured according to the HDB standard protocol. Expiratory time, relaxation time, peak expiratory flow and peak inspiratory flow were collected and used to calculate Penh data.
Lung sections were cut at a thickness of 4 μm, dried in an oven for 1 h and stained with M&T using our standard protocol. Briefly, sections were stained with Weigert’s iron hematoxylin working solution for 10 min, stained in Biebrich scarlet–acid fuchsin solution for 10 min, differentiated in phosphomolybdic–phosphotungstic acid solution for 5 min or until the collagen was not red, transferred to aniline blue solution, stained for 1 min and then dedifferentiated in 1% acetic acid solution. Next, sections were dehydrated and coverslipped for subsequent image analysis. For image analysis of collagen deposition, Masson’s trichrome-stained slides were scanned by using Aperio ScanScope Model CS2 (Leica) at ×200 magnification. Images were then opened with HALO. Using the pen tool, the whole left lung section was selected as an annotation layer. The area occupied by blue collagen fibers was measured using the pen tool. The percentage of fibrosis (positive areas) in the selected annotation was then calculated with the program. Fibrosis was expressed as a percentage per lung section.
Sections (4 μm thick) were placed on slides, and, after overnight drying, paraffin was removed with xylene. Next, sections were placed in a graded ethanol series and immersed in distilled water. After heat-induced citrate antigen (pH 6.0) unmasking, sections were immersed in 3% hydrogen peroxide solution for 5 min. […] Next, secondary antibodies conjugated to HRP were added. For image analysis of fibrosis, stained sections were used and scanned with the Aperio CS2 Scanner machine. Images were then opened with HALO. Using the pen tool, the whole left lung section was selected as an annotation layer. The bronchus was excluded in the annotation layer. The area occupied by collagen fibers was measured using the ‘Area Quantification v2.1.3’ module. The percentage of positive areas in the selected annotation was then calculated using the program.

[3] = system: primary lung fibroblasts from donors with IPF; test: FMT by α-SMA, high-content analysis; format: cell-based, human; details: three donors with IPF; read-out: IC50, TGF-β-mediated α-SMA expression
Description: For the measurement of FMT by α-SMA, on the first day, human lung-derived primary lung fibroblast cells were seeded. After 2 d, the medium of the cells was refreshed. […] On the eighth day (72 h after triggering), cells were fixed with 4% formaldehyde, stained for α-SMA and with DAPI and then imaged and quantified via high-content analysis (HCA) (IN Cell Analyzer 2200, GE Healthcare).
Segmentation and quantification of α-SMA and FN1 immunoreactivity was carried out with an HCA algorithm, with density × area (D × A) output. Data normalization of raw α-SMA or FN1 (D × A) to percent inhibition values was performed on a plate-to-plate basis.
[…]
μp is the average α-SMA or FN1 value of the positive control (TGF-β1 + 1 μM SB525334). μn is the average α-SMA or FN1 value of the vehicle control (TGF-β1 + 0.1% DMSO). Xi is the compound α-SMA or FN1 value. IC50 values for all compounds (if calculable, based on the point of inflection) were calculated with GraphPad Prism using non-linear fit of log (inhibitor) versus response (four parameter).
DAPI fluorescence was applied for HCA-based quantification of the number of imaged cells on a plate-to-plate basis.
Percent remaining cells = (Xi/μn) × 100%
μn is the average number of nuclei of the vehicle control (TGF-β1 + 0.1% DMSO). Xi is the compound number of nuclei.

[4] = system: primary bronchial epithelial cells from donors with IPF; test: EMT by FN1, high-content analysis; format: cell-based, human; details: three donors with IPF
Description: For the measurement of EMT by FN1, on the first day, human primary bronchial epithelial cells were seeded. After 2 d, the medium of the cells was refreshed. […] After 1 h, all cells were treated with 5 ng ml^−1 TGF-β1.
Percent inhibition = (100 − (μp − Xi)/(μp − Xn)) × 100

[5] = G4 INS018_055 3mpk BID, 3 mg/kg
[6] = G5 INS018_055 10mpk BID, 10 mg/kg
[7] = G7 INS018_055 20mpk QD, 20 mg/kg

For `CC(C)n1cnc(-c2ccc(F)cc2)c1-c1nc(C(=O)Nc2ccc(N3CCN(C)CC3)cc2)c[nH]1` [INS018_055, 2-[4-(4-fluorophenyl)-1-(prop-2-yl)imidazol-5-yl]-N-[4-(4-methylhexahydropyrazin-1-yl)phenyl]-1H-imidazole-4-carboxamide], the IL-1β (C57BL/6 mice [1]; [5]) was 76.808 and 90.9173 and 84.4347 and 88.6293 and 81.7653 and 68.4187 and 91.2987 and 66.512, the IL-4 (C57BL/6 mice [1]; [5]) was 44.4779 and 48.864 and 44.3266 and 42.2092 and 40.6967 and 44.6291 and 41.1504 and 43.4191 and the IL-6 (C57BL/6 mice [1]; [5]) was 23.78 and 22.3 and 25.4 and 24.37 and 27.02 and 28.05 and 25.54 and 22.45. For the same compound, the IL-7 (C57BL/6 mice [1]; [5]) was 29.29 and 30.58 and 25.61 and 25.43 and 23.95 and 22.3 and 26.16 and 33.16, the Lymphocytes (C57BL/6 mice [1]; [5]) was 9000 and 7000 and 5750 and 18000 and 15600 and 4800 and 11200 and 5600 and the TNF-alpha (C57BL/6 mice [1]; [5]) was 286.33 and 268.83 and 288.52 and 360.7 and 260.08 and 336.64 and 303.83 and 209.77. The IL-1β (C57BL/6 mice [1]; [6]) was 66.512 and 53.5467 and 55.0721 and 69.944 and 59.2667 and 64.2241 and 56.5974, the IL-4 (C57BL/6 mice [1]; [6]) was 47.5028 and 53.8551 and 49.9227 and 42.8141 and 45.5366 and 45.0828 and 51.2839 and 46.8978 and the IL-6 (C57BL/6 mice [1]; [6]) was 20.39 and 23.04 and 25.84 and 22.45 and 25.99 and 18.47 and 19.8. The IL-7 (C57BL/6 mice [1]; [6]) was 19.9 and 17.14 and 19.72 and 14.2 and 24.69 and 21.38 and 23.4 and 26.72, the Lymphocytes (C57BL/6 mice [1]; [6]) was 19800 and 10350 and 7200 and 6000 and 5400 and 8200 and 6450 and the TNF-alpha (C57BL/6 mice [1]; [6]) was 238.21 and 262.27 and 306.02 and 187.89 and 181.33 and 336.64 and 196.64 and 198.83. For the same compound, the IL-1β (C57BL/6 mice [1]; G6 INS018_055 6mpk QD, 6 mg/kg) was 71.4694 and 80.24 and 88.248 and 64.6054 and 63.0801 and 87.104 and 80.6214, the IL-4 (C57BL/6 mice [1]; G6 INS018_055 6mpk QD, 6 mg/kg) was 42.3604 and 46.7466 and 42.8141 and 44.4779 and 47.9565 and 44.7804 and 48.7128 and 38.7305 and the IL-6 (C57BL/6 mice [1]; G6 INS018_055 6mpk QD, 6 mg/kg) was 27.31 and 23.19 and 22.45 and 27.76 and 33.8 and 25.99 and 28.93 and 26.87. The IL-7 (C57BL/6 mice [1]; G6 INS018_055 6mpk QD, 6 mg/kg) was 27.82 and 30.4 and 27.08 and 33.16 and 21.19 and 31.69 and 25.8 and 28.37, the Lymphocytes (C57BL/6 mice [1]; G6 INS018_055 6mpk QD, 6 mg/kg) was 5200 and 1650 and 3850 and 2700 and 5250 and 5500 and 2600 and the TNF-alpha (C57BL/6 mice [1]; G6 INS018_055 6mpk QD, 6 mg/kg) was 290.7 and 236.02 and 376.01 and 218.52 and 330.08 and 244.77 and 391.33 and 310.39. The IL-1β (C57BL/6 mice [1]; [7]) was 62.6987 and 77.952 and 78.7147 and 61.5547 and 74.52 and 71.8507 and 60.7921 and 57.3601, the IL-4 (C57BL/6 mice [1]; [7]) was 48.1078 and 43.2679 and 48.4103 and 52.3427 and 52.0402 and 44.6291 and 51.7377 and 50.074 and the IL-6 (C57BL/6 mice [1]; [7]) was 22.74 and 25.84 and 21.71 and 18.17 and 26.58 and 23.63 and 22.15 and 25.69. The IL-7 (C57BL/6 mice [1]; [7]) was 16.59 and 21.38 and 22.67 and 18.98 and 27.45 and 24.14 and 31.32 and 16.04, the Lymphocytes (C57BL/6 mice [1]; [7]) was 6500 and 7200 and 8250 and 11600 and 6900 and 1650 and 6100 and 2700 and the TNF-alpha (C57BL/6 mice [1]; [7]) was 244.77 and 214.14 and 279.77 and 218.52 and 163.83 and 341.01 and 179.15 and 292.89. For the same compound, the IC50 (NHDF cells; read-out: IC50, fibronectin in supernatant) was ~135 nM, the IC50 (NHDF cells; read-out: IC50, procollagen I in supernatant) was ~232 nM and the Abdominal pain (healthy subjects) was 1 (5.6) [1]. For the same compound, the Alanine aminotransferase increased (healthy subjects) was 1 (5.6) [1], the Alopecia (healthy subjects) was 0 [0] and the “Any SAE” value (healthy subjects) was 0 [0]. For the same compound, the “Any Severe TEAE” value (healthy subjects) was 0 [0], the “Any Treatment-Related Moderate TEAE” value (healthy subjects) was 0 [0] and the “Any Treatment-Related SAE” value (healthy subjects) was 0 [0]. For the same compound, the “Any Treatment-Related Severe TEAE” value (healthy subjects) was 0 [0], the Aphthous ulcer (healthy subjects) was 1 (5.6) [1] and the Aspartate aminotransferase increased (healthy subjects) was 1 (5.6) [1]. For the same compound, the Back pain (healthy subjects) was 1 (5.6) [1], the “Blood creatine phosphokinase increased” value (healthy subjects) was 1 (5.6) [1] and the Catheter site bruise (healthy subjects) was 1 (5.6) [1]. For the same compound, the Catheter site inflammation (healthy subjects) was 1 (5.6) [1], the Catheter site pain (healthy subjects) was 0 [0] and the Catheter site swelling (healthy subjects) was 1 (5.6) [1]. The Constipation (healthy subjects) was 1 (3.3) [1], the Cough (healthy subjects) was 1 (3.3) [1] and the Diarrhoea (healthy subjects) was 1 (5.6) [1]. The Gastrointestinal disorder (healthy subjects) was 0 [0], the Immune system disorders (healthy subjects) was 1 (5.6) [1] and the Lymph node palpable (healthy subjects) was 1 (5.6) [1]. For the same compound, the “Medical device site irritation” value (healthy subjects) was 2 (6.7) [2], the Nasal congestion (healthy subjects) was 1 (5.6) [1] and the Nausea (healthy subjects) was 1 (5.6) [1]. The Nightmare (healthy subjects) was 1 (5.6) [1], the Paraesthesia (healthy subjects) was 0 [0] and the Phlebitis (healthy subjects) was 3 (10.0) [3]. For the same compound, the Pruritus (healthy subjects) was 1 (5.6) [1], the Psychiatric disorders (healthy subjects) was 1 (5.6) [1] and the Rhinorrhoea (healthy subjects) was 0 [0]. The Seasonal allergy (healthy subjects) was 1 (5.6) [1], the Skin mass (healthy subjects) was 1 (5.6) [1] and the Syncope (healthy subjects) was 1 (3.3) [1]. The Urticaria (healthy subjects) was 0 [0], the Vascular disorders (healthy subjects) was 3 (10.0) [3] and the “Modified Ashcroft Score” value (C57BL/6 mice [2]) was 5.75 and 4.5 and 3. For the same compound, the IC50 [3] was 50 nM and 79 nM and 63 nM and the IC50 [4] was 250 nM and 320 nM and 400 nM.
